Results as given in ChEMBL document CHEMBL1201862, “PubChem BioAssay data set” (2004).
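Cells were grown in 96-well plates and exposed to each compound for 48 hours at five concentrations; endpoints were interpolated linearly between bracketing concentrations, or set to the highest concentration if not reached. GI50 is the concentration that inhibits growth by half.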 Calls of active or inactive are those of the source. No stated cut-off is given here; in the data, active = GI50 up to about 1.1 µM and inactive = higher.

Experiments:
Experiment in all cases: NCI-60 cell line screen, 48 h
SK-MEL-28 = test system: SK-MEL-28
MDA-N = test system: MDA-N
A549 = test system: A549
CCRF-CEM = test system: CCRF-CEM
NCI-H460 = test system: NCI-H460
COLO 205 = test system: COLO 205
EKVX = test system: EKVX
NCI-H23 = test system: NCI-H23
MDA-MB-435 = test system: MDA-MB-435
NCI-H226 = test system: NCI-H226
SW-620 = test system: SW-620
ACHN = test system: ACHN
U-251 = test system: U-251
RXF 393 = test system: RXF 393
OVCAR-3 = test system: OVCAR-3
PC-3 = test system: PC-3
IGROV-1 = test system: IGROV-1
UACC-257 = test system: UACC-257
Malme-3M = test system: Malme-3M
HL-60 = test system: HL-60
OVCAR-5 = test system: OVCAR-5
TK-10 = test system: TK-10
OVCAR-4 = test system: OVCAR-4
SR = test system: SR
MDA-MB-231 = test system: MDA-MB-231
MOLT-4 = test system: MOLT-4
HT-29 = test system: HT-29
SNB-19 = test system: SNB-19
M14 = test system: M14
SF-539 = test system: SF-539
DU-145 = test system: DU-145
NCI-H522 = test system: NCI-H522
HCT-116 = test system: HCT-116
NCI/ADR-RES = test system: NCI/ADR-RES
CAKI-1 = test system: CAKI-1
SF-295 = test system: SF-295
SK-MEL-2 = test system: SK-MEL-2
UACC-62 = test system: UACC-62
Hs-578T = test system: Hs-578T
786-0 = test system: 786-0
SN12C = test system: SN12C
RPMI-8226 = test system: RPMI-8226
BT-549 = test system: BT-549
UO-31 = test system: UO-31
SK-OV-3 = test system: SK-OV-3
HOP-92 = test system: HOP-92
SF-268 = test system: SF-268
T47D = test system: T47D
K562 = test system: K562
HOP-62 = test system: HOP-62
A498 = test system: A498
OVCAR-8 = test system: OVCAR-8
LOX IMVI = test system: LOX IMVI
MCF7 = test system: MCF7
HCT-15 = test system: HCT-15
SK-MEL-5 = test system: SK-MEL-5
KM12 = test system: KM12

Measured: GI50

O=C(O)C1Cc2c([nH]c3ccccc23)C(CCCCO)N1 (stereo not given)
inactive: SK-MEL-28 > 100 µM | MDA-N > 100 µM | A549 > 100 µM | CCRF-CEM > 100 µM | NCI-H460 > 100 µM | COLO 205 > 100 µM | EKVX > 100 µM | NCI-H23 > 100 µM | MDA-MB-435 > 100 µM | NCI-H226 > 100 µM | SW-620 > 100 µM | ACHN > 100 µM | U-251 > 100 µM | RXF 393 > 100 µM | OVCAR-3 > 100 µM | PC-3 > 100 µM | IGROV-1 > 100 µM | UACC-257 > 100 µM | Malme-3M > 100 µM | HL-60 > 100 µM | OVCAR-5 > 100 µM | TK-10 > 100 µM | OVCAR-4 > 100 µM | SR > 100 µM | MDA-MB-231 > 100 µM | MOLT-4 > 100 µM | HT-29 > 100 µM | SNB-19 > 100 µM | M14 > 100 µM | SF-539 > 100 µM | DU-145 > 100 µM | NCI-H522 > 100 µM | HCT-116 > 100 µM | NCI/ADR-RES > 100 µM | CAKI-1 > 100 µM | SF-295 > 100 µM | SK-MEL-2 > 100 µM | UACC-62 > 100 µM | Hs-578T > 100 µM | 786-0 > 100 µM | SN12C > 100 µM | RPMI-8226 > 100 µM | BT-549 > 100 µM | UO-31 > 100 µM | SK-OV-3 > 100 µM | HOP-92 > 100 µM | SF-268 > 100 µM | T47D > 100 µM | K562 > 100 µM | HOP-62 > 100 µM | A498 > 100 µM | OVCAR-8 > 100 µM | LOX IMVI > 100 µM | MCF7 > 100 µM | SK-MEL-5 > 100 µM | KM12 > 100 µM
> 100 µM: HCT-15

CCOC(=O)C1=C(C)NC(=O)N([N+](=O)[O-])C1c1ccccc1C(F)(F)F (stereo not given)
inactive: SK-MEL-28 24.8 µM | MDA-N 21.8 µM | A549 > 100 µM | CCRF-CEM 26.6 µM | NCI-H460 > 100 µM | COLO 205 > 100 µM | NCI-H23 > 100 µM | MDA-MB-435 45.1 µM | NCI-H226 > 100 µM | SW-620 52.6 µM | ACHN > 100 µM | U-251 69 µM | RXF 393 61 µM | OVCAR-3 47.5 µM | PC-3 33.3 µM | IGROV-1 > 100 µM | UACC-257 > 100 µM | Malme-3M 24.3 µM | HL-60 55.2 µM | OVCAR-5 > 100 µM | TK-10 98.2 µM | OVCAR-4 27.2 µM | SR 31.8 µM | MDA-MB-231 > 100 µM | MOLT-4 > 100 µM | HT-29 75.2 µM | SNB-19 > 100 µM | M14 43.5 µM | SF-539 28 µM | DU-145 94.2 µM | HCT-116 35.7 µM | NCI/ADR-RES 34.1 µM | CAKI-1 23.1 µM | SF-295 57.7 µM | SK-MEL-2 > 100 µM | UACC-62 49.4 µM | Hs-578T 70.3 µM | SN12C > 100 µM | RPMI-8226 23.4 µM | BT-549 54.6 µM | UO-31 > 100 µM | SK-OV-3 > 100 µM | HOP-92 > 100 µM | SF-268 53.1 µM | T47D 35.4 µM | K562 72.6 µM | HOP-62 70.6 µM | A498 > 100 µM | OVCAR-8 69.7 µM | LOX IMVI 31 µM | MCF7 52.6 µM | SK-MEL-5 42.3 µM
55.2 µM: HCT-15
